Tests used:
[1] = system: PBMCs; experiment: Multicolor flow cytometry of PBMCs (high cohort); assay type: in vivo, rat
Protocol: An additional cohort of rats (termed “high cohort”) was evaluated to determine effects of SMM-189 on immune cell populations in the brain, resident or infiltrating, and the periphery as measured by flow cytometry (Fig. 1). To ensure infiltrating peripheral immune cells, rats were stereotaxically injected with a higher titer of AAV2/5-human WT Asyn (4.6 × 10^12 vg/mL) and underwent an identical drug treatment timeline with animals sacrificed at 4 (SMM-189: n = 5; vehicle: n = 6) and 8 weeks (SMM-189: n = 7; vehicle: n = 7). At sacrifice, animals were deeply anesthetized with euthasol (i.p., 150 mg/kg) and rapid decapitation performed using a sharp guillotine. Brains were collected at endpoints, and brain immune cells isolated and evaluated using multicolor flow cytometry. Additionally, blood was collected at baseline, 4 and 8 weeks (SMM-189: n = 13; vehicle: n = 13) after stereotaxic surgery for PBMCs isolation to immunophenotype using flow cytometry and for plasma evaluation of SMM-189.
PBMCs were isolated from blood of low cohort rats at euthanasia (8 weeks) for qPCR analysis of immune genes and from blood of high cohort rats at baseline, 4 and 8 weeks after AAV2/5-human WT Asyn and evaluated with flow cytometry for a longitudinal immunophenotype assessment. Red blood cells were lysed using 1x RBC lysis buffer (Biolegend Cat#420301) for 5 min in the dark. Lysis buffer was neutralized by adding 1x HBSS (Gibco Cat#14175095). Cells were pelleted by centrifugation at 400g for 5 min, supernatant removed, and cells washed with HBSS. For the high cohort, cells were resuspended in 200μL of PBS and transferred to a 96-well v-bottom plate for flow cytometry staining. For low cohort, 10,000 cells were lysed in 600μL RLT lysis buffer (Qiagen Cat#79216) + 1% BME, further homogenized by centrifugation through a QiaShredder column (2 min at 21,130g). Lysate was then stored at -80°C and later processed for RNA extraction.
Peripheral and central immune cell staining was performed similarly as previously published protocols. In brief, immune cells were washed and resuspended in PBS, then incubated for 30 min at room temperature in LIVE/DEAD Fixable Red Dead cell stain (ThermoFisher Scientific Cat#L23102; 1:2000). Following two washes in PBS, Fc receptors were blocked with anti-rat CD32 Fc block diluted 1:100 in FACS buffer (1mM EDTA and 0.1% sodium azide in PBS) for 15 min at 4°C. PBMCs were stained for separate myeloid and lymphoid panels and brain immune cells stained with an antibody panel to identify microglia, monocytes and lymphocytes (Table S1-S3). Fluorophore conjugated antibodies diluted with FACS buffer were incubated at 4 °C for 20 min. Cells stained for surface myeloid markers were fixed in 1% PFA for 25 min and washed in FACS.
PBMCs stained with lymphoid panel were further probed intracellularly for transcriptional marker Foxp3 to label […] T cells. […] Then washed and resuspended in FACs buffer. All samples had 10uL of AccuCheck Counting beads (ThermoFisher Cat#PCB100) added to final suspension and cells were run on a LSRII Instrument (BD Biosciences, Franklin Lakes, NJ) with FACSDiva software (BD Biosciences). Results were analyzed using FlowJo 10.8.1 software and brain immune populations of monocytes (classical and non-classical), lymphocytes (CD4 + and CD8+) or microglia and PBMC populations defined by specific strategies (Figure S1-S3).
For PBMC analysis, raw frequencies were normalized across serial runs against vehicle-treated values using the following equation: Raw frequency / (average vehicle frequencies of specific run / average baseline frequencies). For brain immune cell analysis of 8 weeks, samples could not be collected and ran the same day so frequencies were normalized across treatment group at each timepoint using the following equation: raw frequency / (average treatment frequency of specific run 1 / average treatment frequency of specific run 2). […]

[2] = system: pSer129 and total human Asyn in striatum; experiment: Western immunoblot of pSer129 and total human Asyn in striatal lysates; assay type: in vivo; conditions: rat low cohort, striatum ipsilateral to AAV, 6 mg/kg i.p. daily 7 weeks, vs vehicle
Protocol: Sprague Dawley male rats (16–18 weeks of age, 400–525 g) were purchased from Charles River Laboratories and acclimated to Emory University animal facilities. Rats were pair housed in standard plexiglass cages under normal 12-hr light cycles and handled in accordance with protocols approved by the IACUC of Emory University in Atlanta, GA. Rats were administered unilateral injections of AAV2/5-human wild-type (WT) Asyn at titers of 2.9–4.3 × 10^11 vector genomes (vg)/mL (termed “low cohort”), which was previously shown to not induce nigral neurotoxicity. Thereby, generating a model with overexpression of human WT Asyn and Asyn-mediated neuroinflammation. […]
Striatal tissue from successfully targeted low cohort rats was homogenized in ice-cold TriZOL lysed using the TissueLyser system. […] Total protein concentrations were measured using Pierce BCA Protein Assay Kit and equal amount of protein (10–20 µg) mixed with Laemmli sample buffer were loaded in 4–20% TGX precast gels (Biorad) for gel electrophoresis. […] Revert staining was captured and measured on the Licor Odyssey at 700 nm for 30 s.
Non-specific protein binding was blocked with 5% milk and 0.1% Tween-20 in TBS for 1 h at room temperature, and membranes incubated with primary antibodies overnight at 4°C. […] The density of the band was quantified using StudioLite software. […]

O=C(c1ccccc1)c1cc(O)c(-c2cc(Cl)cc(Cl)c2)c(O)c1 [SMM-189]
MHCII MFI on CD43-His48+ classical monocytes ([1]; 4 weeks, vs control): increased
frequencies of Tregs (CD4+Foxp3+; CD4+Foxp3+CD25+) ([1]; 8 weeks compared to own baseline): elevated
granulocytes ([1]; 8 weeks, vs vehicle): decreases
wound-healing non-classical monocytes (CD43+) ([1]; 8 weeks, vs vehicle): increases
Lymphocyte frequencies of CD4 or CD8 populations (or the CD4 to CD8 ratio) ([1]; between treatments): did not reveal significant differences
counts of both CD4 and CD8+ T cells ([1]; vs vehicle): decreased
circulating classically-activated monocytes (CD43-His48+) ([1]; weeks 4 and 8, vs vehicle): reduced
pS129 levels in striatum, western [2]: reduced
total human Asyn levels in striatum, western [2]: no differences

From PMC11438102, “Modulation of cannabinoid receptor 2 alters neuroinflammation and reduces formation of alpha-synuclein aggregates in a rat model of nigral synucleinopathy” (Journal of Neuroinflammation, 2024)
